Assay: pKa, dissociation state and displayed color of the azo dyes
Type: physicochemical
Conditions: proton dissociated
Description: Thus, in the hair dye composition of the present invention having pH (25° C.) of 7.5 to 12, almost 80% or more of these azo dyes are present in an anionic state where a proton(s) is dissociated.

| Structure (SMILES) | color displayed when a proton(s) dissociates |
| --- | --- |
| Cn1nccc1/N=N/c1ccc(O)c(Cl)c1 [Example A-3] | yellow |
| NS(=O)(=O)c1ccc2nsc(/N=N/c3ccc(O)c(Cl)c3)c2c1 [Example A-2] | blue |
| CSc1nsc(/N=N/c2ccc(O)c(Cl)c2)n1 [Example A-1] | red |
